Data on 5 molecules can be found in patent US12528819B2 (priority 2016, dated 2026).

The Ki is a dissociation constant, usually derived from enzyme kinetics or from competition with a known ligand. A low value points to a stronger hold on the target.

Molecules are shown by their SMILES. Where two headings read alike, the source gives them in different places. Some results are limits rather than exact numbers.

One experiment deals with aged-impaired (AI) rats. In words: Morris water maze behavioral task, ICV infusion. The experiment is classed as in vivo, rat. The conditions noted are these: 100 μg ICV. As to the method: The effects of 6,6 dimethyl-3-(3-hydroxypropyl)thio-1-(thiazol-2-yl)-6,7-dihydro-2-benzothiophen-4(5H)-one on the in vivo spatial memory retention of aged-impaired (AI) rats were assessed in a Morris water maze behavioral task. A water maze is a pool surrounded with a novel set of patterns relative to the maze.
Cognitively impaired aged rats were implanted unilaterally with a cannula into the lateral ventricle. Stereotaxic coordinates were 1.0 mm posterior to bregma, 1.5 mm lateral to midline, and 3.5 mm ventral to the skull surface. After about a week of recovery, the rats were pre-trained in a water maze for 2 days (6 trials per day) to locate a submerged escape platform hidden underneath the surface of the pool, in which the escape platform location varied from day to day. No intracerebroventricular (ICV) infusion was given during pre-training.
After pre-training, rats received ICV infusion of either 100 μg 6,6 dimethyl-3-(3-hydroxypropyl)thio-1-(thiazol-2-yl)-6,7-dihydro-2-benzothiophen-4(5H)-one (n=6) in 5 μl DMSO or vehicle DMSO (n=5) 40 min prior to water maze training and testing. Training consisted of 8 trials per day for 2 days where the hidden escape platform remained in the same location. Rats were given 60 seconds to locate the platform with a 60 seconds inter-trial interval. The rats were given a probe test (120 seconds) 24 hr. after the end of training where the escape platform was removed. During the training, there were 4 blocks, where each block had 4 training trials.
During a test trial 24 hr. after training, the escape platform was removed. The search/swim pattern of the rats was used to measure whether the rats remember where the escape platform was located during pre-trial training in order to test for the long-term memory of the rats. In this trial, “target annulus” is a designated area 1.5 times the size of the escape platform around the area where the platform was located during pre-trial training. “Opposite annulus” is a control area of the same size as the size of the target annulus, which is located opposite to the target annulus in the pool. If the rats had good long term memory, they would tend to search in the area surrounding the location where the platform was during the pre-trial training (i.e., the “target” annulus; and not the “opposite” annulus). “Time in annulus” is the amount of time in seconds that the rat spent in the target or opposite annulus area. “Number (#) of crossings” in annulus is the number of times the rat swam across the target or opposite annulus area.

Another experiment deals with T1, α5β3γ2 GABAA receptors (Homo sapiens, UniProt P18507+P31644).
T1 construct: membranes
T1 sequence (P31644 32-462): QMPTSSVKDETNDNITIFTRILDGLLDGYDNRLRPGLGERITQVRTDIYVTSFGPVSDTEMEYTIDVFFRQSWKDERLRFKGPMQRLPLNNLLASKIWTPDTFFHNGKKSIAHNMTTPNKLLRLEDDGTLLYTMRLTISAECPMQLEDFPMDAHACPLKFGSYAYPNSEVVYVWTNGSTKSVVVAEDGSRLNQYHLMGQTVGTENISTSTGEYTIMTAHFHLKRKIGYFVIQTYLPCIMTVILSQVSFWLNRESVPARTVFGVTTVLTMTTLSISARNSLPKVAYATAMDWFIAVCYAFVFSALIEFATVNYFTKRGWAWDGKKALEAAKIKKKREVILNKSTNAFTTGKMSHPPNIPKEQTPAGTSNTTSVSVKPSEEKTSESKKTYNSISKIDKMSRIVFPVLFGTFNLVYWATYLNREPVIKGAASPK
T1 sequence (P28472 26-473 partner): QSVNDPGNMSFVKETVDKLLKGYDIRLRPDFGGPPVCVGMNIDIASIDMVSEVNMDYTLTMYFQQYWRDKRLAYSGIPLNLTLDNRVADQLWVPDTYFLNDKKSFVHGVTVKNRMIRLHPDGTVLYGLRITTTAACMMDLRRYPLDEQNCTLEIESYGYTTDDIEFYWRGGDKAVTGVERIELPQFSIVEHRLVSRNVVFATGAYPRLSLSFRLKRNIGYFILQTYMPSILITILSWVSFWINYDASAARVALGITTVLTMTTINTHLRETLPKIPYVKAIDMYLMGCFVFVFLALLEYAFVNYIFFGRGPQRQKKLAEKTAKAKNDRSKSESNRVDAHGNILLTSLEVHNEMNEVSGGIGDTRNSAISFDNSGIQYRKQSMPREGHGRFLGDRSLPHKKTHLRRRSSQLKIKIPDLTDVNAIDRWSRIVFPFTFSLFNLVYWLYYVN
T1 sequence (P18507 40-467 limits assumed): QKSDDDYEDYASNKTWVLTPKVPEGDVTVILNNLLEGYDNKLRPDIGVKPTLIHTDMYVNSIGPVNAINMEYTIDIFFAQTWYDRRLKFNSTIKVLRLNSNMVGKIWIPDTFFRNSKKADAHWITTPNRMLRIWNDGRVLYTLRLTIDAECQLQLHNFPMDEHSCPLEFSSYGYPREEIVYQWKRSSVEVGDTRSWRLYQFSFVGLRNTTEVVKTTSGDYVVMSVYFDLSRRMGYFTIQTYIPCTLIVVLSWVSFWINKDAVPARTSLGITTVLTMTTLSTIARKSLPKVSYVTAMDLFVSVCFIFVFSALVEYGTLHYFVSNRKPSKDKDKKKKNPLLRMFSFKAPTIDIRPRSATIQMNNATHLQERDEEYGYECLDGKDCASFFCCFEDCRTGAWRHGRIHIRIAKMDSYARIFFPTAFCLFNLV
In words: Binding activity of test compounds on GABAAR: inhibition of [3H]Ro15-1788 binding, membranes of Ltk cells. The method, then: (A) Binding activity of test compounds on GABAAR
Tissue culture and Membrane Preparation: The binding was performed on Ltk cells stably expressing GABAA receptors: α1β1γ2, α2β3γ2, α3β3γ2 and α5β3γ2 (provided by Merck Co., NJ, USA). Cells were seeded in 100 mm culture plates in DMEM/F12 medium containing 10% scrum and antibiotics in 5% CO2 and allowed to grow for 1-2 days. GABAAR expression was then induced by dexamethasone as follows: 0.5 μM for 1 day for α5 containing and 2 μM for 3 days for α1, α2 and α3 containing GABAARs. After induction, cells were collected by scraping into Dulbecco's Phosphate buffered saline (DPBS, pH 7.4, Invitrogen, Carlsbad, CA, USA) and centrifuged at 150×g for 10 min. The pellet was washed twice by re-suspension and centrifugation. The cell pellets from at least 5 different preps were combined, suspended in the binding assay buffer (50 mM KH2PO4; 1 mM EDTA; 0.2 M KCl, pH 7.4) and membranes prepared by sonication (3-5 times, 30 sec) using Branson Sonifier 150 (G. Heinmann, Germany). Protein content was determined using BCA assay (Bio-Rad Labs, Reinach, Switzerland) with Bovine Serum Albumin (Sigma Aldrich, St. Louis, MO, USA) as the standard. Aliquots were prepared and stored at −20° C. for further use in binding assays.
Ligand Binding: Saturation binding curves were obtained by incubating membranes with increasing concentrations (0.01-8 nM) of [^3H]Rol5-1788 (Flumazepil, 75-85 Ci/mmol, PerkinElmer, MA, USA), with nonspecific binding measured in the presence of 10 μM diazepam.
All binding assays were performed for 1 h at 4° C. in assay buffer. The total assay volume was 0.5 ml containing 0.2 mg/ml protein for α5 and 0.4 mg/ml for α1, α2, and α3 containing GABAAR membranes. Incubations were terminated by filtration through GF/B filters using a 24-Cell Harvestor (Brandel, Gaithersburg, MD, USA) followed by 3 washes with ice-cold assay buffer. […] Next day, radioactivity was obtained using a scintillation counter (Beckman Coulter, Brea, CA, USA). […]

Another experiment concerns the target T2, α5β2γ2 subtype GABAAR (Homo sapiens, UniProt P18507+P31644).
T2 construct: expressed in transfected cells
T2 sequence (P31644 32-462): T1 sequence (P31644 32-462)
T2 sequence (P47870 25-512 partner limits assumed): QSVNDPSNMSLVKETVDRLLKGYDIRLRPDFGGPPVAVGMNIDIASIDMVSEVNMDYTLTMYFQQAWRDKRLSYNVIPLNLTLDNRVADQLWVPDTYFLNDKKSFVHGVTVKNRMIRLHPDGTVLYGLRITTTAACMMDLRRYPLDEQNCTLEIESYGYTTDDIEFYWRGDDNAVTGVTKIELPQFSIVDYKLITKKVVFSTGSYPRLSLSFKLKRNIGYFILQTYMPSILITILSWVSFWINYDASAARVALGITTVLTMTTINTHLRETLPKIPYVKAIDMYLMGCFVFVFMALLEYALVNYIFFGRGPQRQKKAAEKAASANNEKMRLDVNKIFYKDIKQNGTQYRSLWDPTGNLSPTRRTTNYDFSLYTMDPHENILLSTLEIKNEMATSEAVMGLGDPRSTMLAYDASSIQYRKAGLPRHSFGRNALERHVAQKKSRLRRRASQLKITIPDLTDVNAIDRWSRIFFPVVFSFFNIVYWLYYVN
T2 sequence (P18507 40-467 limits assumed): T1 sequence (P18507 40-467 limits assumed)
In words: Positive allosteric modulator activity: potentiation of EC20 GABA current in oocytes. The experiment is classed as cell-based. As to conditions: read-out: GABA α5 Functional Data (potentiation), @ 100 nM, reported as ranges. The gist of the method: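 Xenopus oocytes injected with 1 ng α5:β2:γ2 cDNA (1:1:10 by weight) and recorded on day 2 by two-electrode voltage clamp under MBS superfusion. Potentiation (%) = Itest/IGABA at EC20 GABA; each oocyte used for one concentration only.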

Another experiment has as its system MAM-treated rats. The conditions noted are these: cited from earlier work.
Setting [1] is: probe test 24 hr. after training.

For the molecule `CC1(C)CC(=O)c2c(SCCCO)sc(-c3nccs3)c2C1` [6,6 dimethyl-3-(3-hydroxypropyl)thio-1-(thiazol-2-yl)-6,7-dihydro-2-benzothiophen-4(5H)-one], in the experiment with aged-impaired (AI) rats (beginning of training (block 1)), the “time to find the escape platform” value is listed as “about 24 seconds”. In addition, the “time to find the escape platform” value in the experiment with aged-impaired (AI) rats (end of training (block 4)) is recorded as “about 9.6 seconds”. Moreover, in the experiment with aged-impaired (AI) rats (setting [1]), the “number of crossings of target annulus compared to opposite annulus” value is “more often” and the “time in target annulus compared to opposite annulus” value was “significantly more time in the target annulus”.

`COC1C=C2C(=CC1)n1cnc(-c3noc(C(C)C)n3)c1Cn1c(COc3ccccc3Cl)nnc12` (centres unmarked) [Compound 175] returned a Ki on α5β3γ2 GABAA receptors below 0.1 µM. Besides, on α5β2γ2 subtype GABAAR, the activation at 0.1 µM was 20 to 50%.

At α5β3γ2 GABAA receptors, `C#Cc1ccc2c(c1)-n1nnc(COC)c1Cc1c(C3=N[C@@H](C(C)C)CO3)ncn1-2` [Compound 384] came in with a Ki of 0.1 to 1 µM.

At α5β3γ2 GABAA receptors (reported as ranges), `COCc1nnc2n1Cc1c(-c3ncco3)ncn1-c1cc(Cl)ccc1-2` [Compound 458] came in with a Ki above 1 µM.

For the molecule `C#Cc1ccc2c(c1)C(c1ccccc1F)=N[C@H](C)c1c(C(=O)OCC)ncn1-2` [SH-053-2′F—R—CH3], the “number of spontaneously active DA neurons in the ventral tegmental area (VTA)” value in the experiment on MAM-treated rats (MAM rats, systemic or infused into ventral HPC, to levels of saline-treated rats) was “reduces”. In the experiment with MAM-treated rats (MAM-treated rats), the “increased locomotor response to amphetamine” value is “reduced”. Besides, the “cortical-evoked responses of HPC neurons” value in the experiment on MAM-treated rats (saline-treated and MAM-treated animals) is “diminished”.
